The target of one test is T1, NasS-NasT (Paracoccus denitrificans, UniProt A1BAH4).
T1 construct: gene Pden_4454; co-expressed from pET-24a/nasTS in E. coli BL21(DE3); N-terminal His6-tag on NasT (tag kept), NasS untagged; NasS ~42 kDa, NasT ~22 kDa; heterotetramer ~132 kDa (two NasS, two NasT); with Response regulator NasT, ANTAR domain-containing positive regulator
T1 sequence (A1BAH4 1-390): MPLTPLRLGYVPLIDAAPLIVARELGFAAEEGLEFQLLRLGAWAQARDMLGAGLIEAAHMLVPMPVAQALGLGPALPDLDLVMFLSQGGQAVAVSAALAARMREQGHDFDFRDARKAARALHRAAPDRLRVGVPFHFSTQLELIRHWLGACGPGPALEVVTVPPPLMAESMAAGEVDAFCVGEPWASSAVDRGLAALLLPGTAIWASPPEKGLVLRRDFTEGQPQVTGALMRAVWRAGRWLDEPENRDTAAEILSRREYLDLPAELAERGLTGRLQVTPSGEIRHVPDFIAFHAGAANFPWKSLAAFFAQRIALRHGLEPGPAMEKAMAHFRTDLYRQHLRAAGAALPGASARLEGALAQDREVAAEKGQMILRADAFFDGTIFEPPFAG
T1 sequence (A1BAH5 1-196 partner): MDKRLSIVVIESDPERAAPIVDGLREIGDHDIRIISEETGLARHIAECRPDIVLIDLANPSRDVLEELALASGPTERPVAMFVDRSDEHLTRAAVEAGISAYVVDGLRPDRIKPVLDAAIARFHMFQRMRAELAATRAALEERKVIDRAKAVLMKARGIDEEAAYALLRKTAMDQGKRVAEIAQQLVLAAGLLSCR
In words: intrinsic tryptophan fluorescence quench (ex […] nm, em […] nm). Conditions: read-out: KD^app. In kind it is binding.

The target in test [1] is NasT (His-tagged recombinant P. denitrificans NasT) (Paracoccus denitrificans PD1222). In words: AUC; sedimentation equilibrium of the purified complex, no NO3-; 50 mM NaHEPES, 100 mM NaCl, pH 7.5; 7.5, 12 and 16 krpm; 10 uM protein; ideal one-component fit.
For test [2] the target is unchanged. In words: SEC; analytical Superdex 200 HR 10/30, equilibration buffer supplemented with 1 mM NO3-; fractions analysed by SDS-PAGE. On the technique in general: In gel filtration, larger molecules generally elute earlier.

As for `O=NO` [NO2^−], the Kd at NasS-NasT came to 94 ± 12 µM.
The same measure, in the same setting: as for `O=[N+]([O-])O` [NO3^−], the figure is 15 ± 2 µM.
On to “NasS (recombinant P. denitrificans NasS) (natural protein)”, for which the stoichiometry N (NasS per NasT (2:2)) in test [1] came out at 1.
One may read the stoichiometry N as a count of units in the complex or per binding partner. Take “NasT (His-tagged recombinant P. denitrificans NasT) (natural protein)”: the stoichiometry N in test [2] is 6 monomers.

Source of the values: paper PMC3795266, “Nitrogen Oxyanion-dependent Dissociation of a Two-component Complex That Regulates Bacterial Nitrate Assimilation” (The Journal of Biological Chemistry, 2013).
